The target of experiment [1] is Serine/threonine-protein kinase VRK2 (Homo sapiens) (UniProt Q86Y07). Put plainly: Inhibition of VRK2 Lys2 labeling site in human A-375 cells at 0.5 uM by KiNativ Profiling analysis relative to control. Format: cell-based.
Experiment [2] has as its target Hormonally up-regulated neu tumor-associated kinase (Homo sapiens) (UniProt P57058). Briefly: Inhibition of HUNK (unknown origin) at 1 uM by Ambit Kinomescan binding assay relative to control; values are per cent of control.
Experiment [3] addresses eIF-2-alpha kinase GCN2 (Homo sapiens) (UniProt Q9P2K8). Put plainly: Inhibition of GCN2 domain2 Lys1 labeling site in human A-375 cells at 0.05 uM by KiNativ Profiling analysis relative to control. The experiment is classed as cell-based.
For experiment [4], the target named is Cyclin-dependent kinase 4/cyclin D1 (Homo sapiens) (UniProt P11802+P24385). Put plainly: Inhibition of CDK4/cyclinD1 (unknown origin) at 1 uM by Ambit Kinomescan binding assay relative to control; values are per cent of control.
For experiment [5], the target named is Mitogen-activated protein kinase kinase kinase 9 (Homo sapiens) (UniProt P80192). Put plainly: Inhibition of MLK1 (unknown origin) at 1 uM by Ambit Kinomescan binding assay relative to control; values are per cent of control.
For experiment [6], the target named is Receptor tyrosine-protein kinase erbB-3 (Homo sapiens) (UniProt P21860). Put plainly: Inhibition of HER3/ErbB3 ACT labeling site in human A-375 cells at 5 uM by KiNativ Profiling analysis relative to control. Format: cell-based.
Experiment [7] has as its target Phosphatidylinositol 4,5-bisphosphate 3-kinase catalytic subunit beta isoform (Homo sapiens) (UniProt P42338). Put plainly: Inhibition of PIK3CB (unknown origin) at 1 uM by Ambit Kinomescan binding assay relative to control; values are per cent of control.
For experiment [8], the system named is Proto-oncogene tyrosine-protein kinase receptor Ret (Homo sapiens), P07949 [V804L]. Briefly: Inhibition of RET V804L mutant (unknown origin) at 10 uM by Ambit Kinomescan binding assay relative to control; values are per cent of control.
For experiment [9], the target named is Dual specificity mitogen-activated protein kinase kinase 1 (Homo sapiens) (UniProt Q02750). Briefly: Inhibition of MAP2K1 Lys1 labeling site in human A-375 cells at 0.05 uM by KiNativ Profiling analysis relative to control. The experiment is classed as cell-based.
Experiment [10] concerns the target Cyclin-dependent kinase 16 (Homo sapiens) (UniProt Q00536). Put plainly: Inhibition of PFTAIRE1 Lys2 labeling site in human A-375 cells at 0.5 uM by KiNativ Profiling analysis relative to control. Format: cell-based.
Experiment [11] addresses Serine/threonine-protein kinase MRCK alpha (Homo sapiens) (UniProt Q5VT25). Put plainly: Inhibition of MRCKA (unknown origin) at 10 uM by Ambit Kinomescan binding assay.
Experiment [12] concerns MEF. Briefly: Inhibition of IL-1alpha induced p105 phosphorylation level in mouse MEF cells preincubated for 1 hr followed by IL-1 alpha stimulation and measured after 30 mins by Western blot analysis. The experiment is classed as functional, cell-based. The conditions noted are these: dose 0.01-10 µM. On the technique in general: In western blotting, separated proteins are transferred to a membrane and probed.

In experiment [13] the target is T1, Acylglycerol kinase, mitochondrial (Homo sapiens) (UniProt Q53H12).
T1 sequence (whole entry): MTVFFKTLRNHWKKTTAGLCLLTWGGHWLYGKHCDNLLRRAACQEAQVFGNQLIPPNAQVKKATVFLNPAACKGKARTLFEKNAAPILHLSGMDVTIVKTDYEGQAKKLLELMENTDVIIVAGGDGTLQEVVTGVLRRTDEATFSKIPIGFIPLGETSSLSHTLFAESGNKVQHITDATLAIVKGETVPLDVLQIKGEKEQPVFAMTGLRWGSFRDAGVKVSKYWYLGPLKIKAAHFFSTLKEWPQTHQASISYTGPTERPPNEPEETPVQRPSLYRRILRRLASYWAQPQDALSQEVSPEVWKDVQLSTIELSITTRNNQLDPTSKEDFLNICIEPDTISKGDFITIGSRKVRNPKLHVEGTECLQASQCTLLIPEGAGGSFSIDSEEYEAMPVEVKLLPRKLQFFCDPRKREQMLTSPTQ
Briefly: Inhibition of AGK ATP labeling site in human Huh-7 cells at 10 uM by KiNativ Profiling analysis relative to control. Format: cell-based.

Experiment [14] deals with MAP/microtubule affinity-regulating kinase 3 (Homo sapiens) (UniProt P27448). Briefly: Inhibition of MARK3 K1 labeling site in human Huh-7 cells at 10 uM by KiNativ Profiling analysis relative to control. The experiment is classed as cell-based.
For experiment [15], the target named is Cyclin-dependent kinase 6 (Homo sapiens) (UniProt Q00534). Put plainly: Inhibition of CDK6 Lys2 labeling site in human Huh-7 cell lysate at 1 uM by KiNativ Profiling analysis relative to control. Format: subcellular.
For experiment [16], the target named is T2, Serine/threonine-protein kinase 3 (Homo sapiens) (UniProt Q13188).
T2 sequence (whole entry): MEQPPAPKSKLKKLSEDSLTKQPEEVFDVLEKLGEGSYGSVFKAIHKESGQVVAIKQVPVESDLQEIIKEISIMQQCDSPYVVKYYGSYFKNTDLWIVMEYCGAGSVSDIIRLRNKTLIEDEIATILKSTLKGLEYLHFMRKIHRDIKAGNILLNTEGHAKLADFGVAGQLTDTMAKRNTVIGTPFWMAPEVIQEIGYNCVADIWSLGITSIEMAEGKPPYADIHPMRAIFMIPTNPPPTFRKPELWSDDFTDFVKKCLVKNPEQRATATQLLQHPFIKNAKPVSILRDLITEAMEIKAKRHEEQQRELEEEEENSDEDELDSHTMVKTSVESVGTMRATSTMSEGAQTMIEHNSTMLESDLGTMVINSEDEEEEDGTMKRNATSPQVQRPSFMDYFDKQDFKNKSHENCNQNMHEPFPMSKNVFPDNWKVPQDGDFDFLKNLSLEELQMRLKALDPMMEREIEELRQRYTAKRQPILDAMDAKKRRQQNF
Briefly: Inhibition of MST2 Lys1 labeling site in human Huh-7 cells at 1 uM by KiNativ Profiling analysis relative to control. The experiment is classed as cell-based.

Experiment [17] addresses Serine/threonine-protein kinase 4 (Homo sapiens) (UniProt Q13043). Briefly: Inhibition of MST1 Lys2 labeling site harbouring IHRDIKAGNILLNTEGHAK in human Huh-7 cell lysate at 1 uM by KiNativ Profiling analysis relative to control.

From ChEMBL document CHEMBL5696442, “Discovery of type II inhibitors of TGFβ-activated kinase 1 (TAK1) and mitogen-activated protein kinase kinase kinase kinase 2 (MAP4K2)” (J Med Chem, 2015) come the findings set out here.

Active and inactive are the calls of the source. The calls are words filed in the database; no cut-off is given here.

Chain of Mitogen-activated protein kinase kinase kinase 9 (Homo sapiens) (P80192 whole entry, looked up): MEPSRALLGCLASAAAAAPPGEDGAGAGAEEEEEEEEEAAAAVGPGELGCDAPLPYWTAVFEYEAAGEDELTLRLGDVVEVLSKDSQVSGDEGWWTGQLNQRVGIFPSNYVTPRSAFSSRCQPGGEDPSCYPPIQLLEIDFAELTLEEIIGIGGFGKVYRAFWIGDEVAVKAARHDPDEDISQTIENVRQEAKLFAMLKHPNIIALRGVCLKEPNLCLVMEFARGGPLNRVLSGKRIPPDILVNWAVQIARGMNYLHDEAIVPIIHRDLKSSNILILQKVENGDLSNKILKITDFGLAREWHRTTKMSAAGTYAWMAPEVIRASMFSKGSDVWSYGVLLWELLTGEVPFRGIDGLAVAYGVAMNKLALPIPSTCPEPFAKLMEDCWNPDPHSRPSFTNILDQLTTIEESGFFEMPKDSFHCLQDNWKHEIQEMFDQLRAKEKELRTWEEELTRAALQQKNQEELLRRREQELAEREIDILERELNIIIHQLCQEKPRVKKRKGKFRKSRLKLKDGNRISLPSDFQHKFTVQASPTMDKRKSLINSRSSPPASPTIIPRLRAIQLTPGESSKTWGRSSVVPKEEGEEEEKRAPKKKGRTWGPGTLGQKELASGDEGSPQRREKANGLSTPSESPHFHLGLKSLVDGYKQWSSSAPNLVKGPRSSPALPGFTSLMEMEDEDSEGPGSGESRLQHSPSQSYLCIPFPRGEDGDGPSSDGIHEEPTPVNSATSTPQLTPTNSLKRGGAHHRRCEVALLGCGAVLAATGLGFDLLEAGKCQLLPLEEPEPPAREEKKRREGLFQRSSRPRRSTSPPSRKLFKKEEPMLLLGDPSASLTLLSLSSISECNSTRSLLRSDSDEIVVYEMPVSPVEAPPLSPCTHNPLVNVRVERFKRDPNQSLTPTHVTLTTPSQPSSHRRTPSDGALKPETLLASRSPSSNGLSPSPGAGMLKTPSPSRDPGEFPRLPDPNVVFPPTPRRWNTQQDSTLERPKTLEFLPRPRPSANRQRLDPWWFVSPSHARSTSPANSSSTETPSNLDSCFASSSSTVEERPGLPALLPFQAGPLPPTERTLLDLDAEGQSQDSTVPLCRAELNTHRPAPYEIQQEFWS
Chain of Hormonally up-regulated neu tumor-associated kinase (Homo sapiens) (P57058 whole entry, the tested form may be a part): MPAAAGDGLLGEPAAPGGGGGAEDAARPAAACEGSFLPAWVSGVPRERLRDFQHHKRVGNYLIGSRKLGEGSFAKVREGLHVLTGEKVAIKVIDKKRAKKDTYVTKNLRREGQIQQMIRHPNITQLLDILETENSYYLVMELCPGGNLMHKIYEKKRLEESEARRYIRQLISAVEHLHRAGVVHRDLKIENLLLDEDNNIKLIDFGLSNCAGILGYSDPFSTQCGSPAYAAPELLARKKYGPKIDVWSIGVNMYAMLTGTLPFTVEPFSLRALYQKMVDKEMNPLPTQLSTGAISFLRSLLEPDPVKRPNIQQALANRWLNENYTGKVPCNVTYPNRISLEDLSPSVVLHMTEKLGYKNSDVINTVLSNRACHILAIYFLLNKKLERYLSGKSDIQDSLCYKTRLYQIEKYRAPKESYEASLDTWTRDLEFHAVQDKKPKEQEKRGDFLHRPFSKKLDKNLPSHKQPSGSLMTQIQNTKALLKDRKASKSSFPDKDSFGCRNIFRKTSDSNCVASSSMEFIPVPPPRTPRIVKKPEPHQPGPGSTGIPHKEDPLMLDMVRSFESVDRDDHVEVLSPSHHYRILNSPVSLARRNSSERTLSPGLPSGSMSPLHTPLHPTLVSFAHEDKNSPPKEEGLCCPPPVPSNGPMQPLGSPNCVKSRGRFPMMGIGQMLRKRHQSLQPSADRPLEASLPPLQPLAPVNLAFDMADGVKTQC
Chain of Serine/threonine-protein kinase VRK2 (Homo sapiens) (Q86Y07 whole entry): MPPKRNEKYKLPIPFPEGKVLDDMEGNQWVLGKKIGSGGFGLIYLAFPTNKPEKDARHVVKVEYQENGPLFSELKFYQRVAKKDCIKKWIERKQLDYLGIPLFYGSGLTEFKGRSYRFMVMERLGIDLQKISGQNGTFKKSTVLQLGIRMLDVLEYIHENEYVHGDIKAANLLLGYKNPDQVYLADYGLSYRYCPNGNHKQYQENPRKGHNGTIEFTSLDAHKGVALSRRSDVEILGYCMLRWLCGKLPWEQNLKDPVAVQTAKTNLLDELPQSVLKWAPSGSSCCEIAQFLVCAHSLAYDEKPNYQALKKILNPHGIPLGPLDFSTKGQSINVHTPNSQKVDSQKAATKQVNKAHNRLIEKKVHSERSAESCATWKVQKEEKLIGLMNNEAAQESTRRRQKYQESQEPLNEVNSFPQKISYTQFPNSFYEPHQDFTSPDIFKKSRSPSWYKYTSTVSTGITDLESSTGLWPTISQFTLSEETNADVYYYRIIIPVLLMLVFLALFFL
Chain of Dual specificity mitogen-activated protein kinase kinase 1 (Homo sapiens) (Q02750 whole entry): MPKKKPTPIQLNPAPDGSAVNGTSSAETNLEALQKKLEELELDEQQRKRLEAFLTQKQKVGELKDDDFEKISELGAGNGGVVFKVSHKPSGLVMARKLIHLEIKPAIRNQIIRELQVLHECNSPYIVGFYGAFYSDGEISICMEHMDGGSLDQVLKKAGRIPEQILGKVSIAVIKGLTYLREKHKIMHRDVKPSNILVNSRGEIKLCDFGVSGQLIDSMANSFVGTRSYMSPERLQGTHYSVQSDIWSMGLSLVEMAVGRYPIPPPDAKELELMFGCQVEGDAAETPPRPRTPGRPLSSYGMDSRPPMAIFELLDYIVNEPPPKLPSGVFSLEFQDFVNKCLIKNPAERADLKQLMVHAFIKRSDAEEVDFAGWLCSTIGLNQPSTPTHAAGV
Chain of Serine/threonine-protein kinase MRCK alpha (Homo sapiens) (Q5VT25 whole entry): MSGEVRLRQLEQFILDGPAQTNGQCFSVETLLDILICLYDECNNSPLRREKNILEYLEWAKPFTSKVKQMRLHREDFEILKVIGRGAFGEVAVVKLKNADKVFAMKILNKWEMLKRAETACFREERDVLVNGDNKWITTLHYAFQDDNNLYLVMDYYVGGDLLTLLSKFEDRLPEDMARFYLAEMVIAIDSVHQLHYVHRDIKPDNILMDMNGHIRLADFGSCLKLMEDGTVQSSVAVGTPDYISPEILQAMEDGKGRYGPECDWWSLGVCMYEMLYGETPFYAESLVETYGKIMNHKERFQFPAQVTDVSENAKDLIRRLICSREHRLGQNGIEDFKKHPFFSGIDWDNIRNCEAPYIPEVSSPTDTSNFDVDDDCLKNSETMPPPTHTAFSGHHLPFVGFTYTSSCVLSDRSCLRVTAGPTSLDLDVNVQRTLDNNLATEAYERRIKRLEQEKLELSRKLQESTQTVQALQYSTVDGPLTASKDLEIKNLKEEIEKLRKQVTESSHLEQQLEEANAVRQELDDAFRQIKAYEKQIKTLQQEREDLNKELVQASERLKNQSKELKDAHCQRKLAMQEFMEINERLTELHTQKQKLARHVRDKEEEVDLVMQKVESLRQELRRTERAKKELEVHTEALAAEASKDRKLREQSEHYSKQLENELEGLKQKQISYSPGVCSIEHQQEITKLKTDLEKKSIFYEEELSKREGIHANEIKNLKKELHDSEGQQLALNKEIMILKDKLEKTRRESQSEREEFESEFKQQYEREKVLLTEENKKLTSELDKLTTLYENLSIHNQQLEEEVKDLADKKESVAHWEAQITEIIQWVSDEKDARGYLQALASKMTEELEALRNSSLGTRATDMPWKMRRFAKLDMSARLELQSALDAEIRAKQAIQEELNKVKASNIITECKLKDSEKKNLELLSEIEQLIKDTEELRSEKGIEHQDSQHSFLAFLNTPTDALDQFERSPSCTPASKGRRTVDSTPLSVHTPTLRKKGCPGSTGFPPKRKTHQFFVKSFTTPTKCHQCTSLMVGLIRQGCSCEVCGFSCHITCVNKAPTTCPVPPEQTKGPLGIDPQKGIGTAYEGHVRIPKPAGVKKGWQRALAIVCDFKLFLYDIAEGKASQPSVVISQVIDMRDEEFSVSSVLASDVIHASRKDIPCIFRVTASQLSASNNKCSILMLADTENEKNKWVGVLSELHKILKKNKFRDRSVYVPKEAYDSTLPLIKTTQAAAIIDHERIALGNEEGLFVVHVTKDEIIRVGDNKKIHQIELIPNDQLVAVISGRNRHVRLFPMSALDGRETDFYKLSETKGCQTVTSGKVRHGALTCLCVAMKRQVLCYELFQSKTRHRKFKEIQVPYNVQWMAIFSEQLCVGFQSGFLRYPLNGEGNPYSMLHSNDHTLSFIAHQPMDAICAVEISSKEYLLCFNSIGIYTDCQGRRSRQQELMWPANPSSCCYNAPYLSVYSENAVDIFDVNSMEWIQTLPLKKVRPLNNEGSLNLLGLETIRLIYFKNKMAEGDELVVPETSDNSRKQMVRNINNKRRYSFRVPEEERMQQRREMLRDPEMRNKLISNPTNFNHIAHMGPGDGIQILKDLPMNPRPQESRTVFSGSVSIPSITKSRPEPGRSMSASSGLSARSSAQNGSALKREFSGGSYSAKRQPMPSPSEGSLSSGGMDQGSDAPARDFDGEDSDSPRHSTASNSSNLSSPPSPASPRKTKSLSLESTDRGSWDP
Chain of Serine/threonine-protein kinase 4 (Homo sapiens) (Q13043 whole entry, looked up): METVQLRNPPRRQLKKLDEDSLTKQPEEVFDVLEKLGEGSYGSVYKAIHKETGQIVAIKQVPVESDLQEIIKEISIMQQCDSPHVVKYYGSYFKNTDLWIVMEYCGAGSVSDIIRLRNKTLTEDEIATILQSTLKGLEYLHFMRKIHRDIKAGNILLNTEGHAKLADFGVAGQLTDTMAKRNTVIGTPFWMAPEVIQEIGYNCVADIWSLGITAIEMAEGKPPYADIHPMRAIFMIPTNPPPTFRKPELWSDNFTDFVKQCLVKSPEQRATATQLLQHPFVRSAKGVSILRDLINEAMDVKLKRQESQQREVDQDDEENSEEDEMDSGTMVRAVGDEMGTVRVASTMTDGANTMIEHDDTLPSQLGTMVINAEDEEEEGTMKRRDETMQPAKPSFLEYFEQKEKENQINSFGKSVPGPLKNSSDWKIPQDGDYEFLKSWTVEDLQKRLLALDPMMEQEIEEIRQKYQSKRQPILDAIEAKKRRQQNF

As for `CCN1CCN(Cc2ccc(NC(=O)c3ccc(C)c(/C=C/c4cnc5[nH]ccc5c4OC)c3)cc2C(F)(F)F)CC1`, the figures for the inhibition in experiment [1], in [3] and in experiment [6] were 28.5%, 4.6% and -3.7%, respectively. For the same compound, the residual activity in [2] stood at 57%; in [5], 4.7%; in experiment [7] it was 100%. Also, the percent of control in experiment [4] amounted to 100%.

`CCN1CCN(Cc2ccc(NC(=O)c3ccc(C)c(Oc4ccnc5[nH]ccc45)c3)cc2C(F)(F)F)CC1` had a residual activity in experiment [8] of 0.8%. Also, the inhibition (usually the drop in the measured response relative to a control, in per cent) in [9] was 2.9%; in experiment [10], 33.6%; in experiment [12] it was “Dose-Dependent Effect”; in [14], -7.2%. Moreover, the inhibition result in [11] and in experiment [13] was “inactive” each time.

As for `CNc1cc(Oc2cc(C(=O)Nc3cc(N4CCN(C)CC4)cc(C(F)(F)F)c3)ccc2C)ncn1`, the inhibition in experiment [15] was -1.9%; in [16], 5.3%; in experiment [17], 14.4%.
